{"source": "patent US12527327B2", "about": "“High hyaluronate multi-purpose disinfection solutions for ophthalmic applications” (CIS BIOPHARMA AG, priority 2019, dated 2026)", "test": "XTT cytotoxicity assay according to ISO 10993", "details": "mouse", "excerpt": "A larger scale batch (100 Liter) of Formulation E was further evaluated in more detail with an XTT test according to ISO 10993, published by the International Organization for Standardization: “Biological Evaluation of Medical Devices”, Part 1: “Evaluation and testing within a risk management process”, 2018, Part 5: “Tests for in vitro cytotoxicity”, 2009 using a valuated method from the ICCR-Roßdorf GmbH (Germany) and a Xenometrix test kit. With the XTT assay, cell proliferation and viability as well as the mitochondrial metabolic competence of the cells after treatment with a test item is determined […]. The XTT test is based on the cleavage of the yellow tetrazolium salt XTT [_(sodium 3′-(1-phenylaminocarbonyl)-(3,4-tetrazolium)-bis-(4-methoxy-6-nitro)-benzenesulfonic acid hydrate)] to form an orange water soluble formazan dye by dehydrogenase activity in active mitochondria. This method was first described 1988 by SCUDIERO et al.\nIn brief, the potential cytotoxic effect was evaluated with a dilution series of formulation E in complete medium [RPMI 1640 medium (including glutamax), supplemented with 10% FCS, 1 mM sodium pyruvate, and 100 units/mL penicillin, and 100 μg/mL streptomycin] resulting in the following end concentrations 39.1 μg/mL, 78.1 μg/mL, 156 μg/mL, 313 μg/mL, 625 μg/mL, 1250 μg/mL; 2500 μg/mL, 5000 μg/mL. Subsequently the effect of the solution was examined after 24±1 h treatment time on prior prepared mouse L929 cell line (supplied by DSMZ, 38124 Braunschweig, Germany). In parallel several controls were tested as well:\nMedium Control=Complete medium; Solvent control=Complete medium, Positive control=Sodium dodecyl sulfate (SDS; purity: ≥99%); Solvent=deionized water, diluted with complete medium to a ratio of 1:10 (v/v). The positive control was tested in 8 concentrations in a range from 3.1-250 μg/mL. Solvent control for the positive control=Complete medium and 10% (v/v) deionized water.\nAt the end of the incubation period, 50 μL of the XTT labelling mixture (Xenometrix, Allschwil, Switzerland) were added to each well. The cells were incubated and subsequently transferred to a microplate reader and the absorbance values were determined (Versamax® Molecular Devices, software SoftMax Pro Enterprise (version 4.7.1)) at 450 nm (reference wavelength 690 nm). A decrease in number of living cells results in a decrease in the overall activity of mitochondrial dehydrogenases in the sample. This decrease directly correlates to the amount of orange formazan formed, as monitored by the absorbance. The relative absorbance (=viability) as compared to the solvent control is calculated using this formula: […]\nTo calculate the concentration of toxicant required to reduce the relative absorbance to 50% of the solvent control (XTT50) the following formula is used:\n[formula] • a) Conc.>50=max. measured concentration with the % of solvent control >50% • b) Conc.<50=min. measured concentration with the % of solvent control <50% • c) %>50=relative absorbance at a) in % • d) %<50=relative absorbance at b) in %\nThe lower the XTT50 value, the higher is the cytotoxic potential of the test item."}
{"smiles": "CCCCCCCCCCCCOS(=O)(=O)[O-].[Na+]", "note": "[SDS, Sodium dodecyl sulfate]", "values": [{"measurement": "viability at 3.1 μg/mL", "result": 96.9, "unit": "%"}, {"measurement": "viability at 6.3 μg/mL", "result": 97.2, "unit": "%"}, {"measurement": "viability at 12.5 μg/mL", "result": 99.9, "unit": "%"}, {"measurement": "viability at 25 μg/mL", "result": 91.7, "unit": "%"}, {"measurement": "viability at 50 μg/mL", "result": 85, "unit": "%"}, {"measurement": "viability at 100 μg/mL", "result": 5.8, "unit": "%"}, {"measurement": "viability at 125 μg/mL", "result": 1.63, "unit": "%"}, {"measurement": "viability at 250 μg/mL", "result": 0.16, "unit": "%"}]}
